Laboratory results: publication PMC7785020, “A unique hormonal recognition feature of the human glucagon-like peptide-2 receptor” (Cell Research, 2020)
Residue numbers refer to the chain shown, from its start.

Legend:
GLP-2R K231^2.67A = biological target: T1, GLP-2R K231^2.67A (Homo sapiens, UniProt O95838, K231A); assay: radioligand competition binding, K231^2.67A; set-up: WT (1–553); expressed in transfected cells; details: COS-7, K231^2.67A; [^125I]GLP-2(1–33, M10Y) 10–15 pM, 4 h, 4 °C; n ≥ 3 in duplicate
T1 sequence (O95838 1-553 K231A): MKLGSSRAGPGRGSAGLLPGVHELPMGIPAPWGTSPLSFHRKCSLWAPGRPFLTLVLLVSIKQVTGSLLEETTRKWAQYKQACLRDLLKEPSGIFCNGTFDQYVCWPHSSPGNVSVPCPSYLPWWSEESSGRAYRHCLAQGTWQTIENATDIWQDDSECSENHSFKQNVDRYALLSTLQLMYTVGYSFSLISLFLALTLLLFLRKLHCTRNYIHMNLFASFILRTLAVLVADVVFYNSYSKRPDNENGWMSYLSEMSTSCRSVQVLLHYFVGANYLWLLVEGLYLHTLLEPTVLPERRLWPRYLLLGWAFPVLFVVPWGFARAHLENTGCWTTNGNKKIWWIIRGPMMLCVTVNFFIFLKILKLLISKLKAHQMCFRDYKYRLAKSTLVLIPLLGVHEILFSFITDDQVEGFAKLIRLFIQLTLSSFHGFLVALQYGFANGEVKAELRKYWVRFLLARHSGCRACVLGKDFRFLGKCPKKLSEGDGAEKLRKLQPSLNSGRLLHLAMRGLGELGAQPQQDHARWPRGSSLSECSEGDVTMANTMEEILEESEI
Procedure: (§1) A stepwise oxidation reaction was performed by addition of 6 aliquots of 5 µL ChloramineT (30 µL/mL) with a 1-min interval during constant stirring. The reaction was terminated by the addition of 400 µL phase A (0.1% trifluoracetic acid) before being fractionated into 1 mL volume by reverse-phase high-performance liquid chromatography (RP-HPLC, Waters 600 SimiPrep system) on a C18 column. The iodinated protein was […] by increasing concentrations of phase B (Acetonitrile + 0.1% TFA) and tested for competitive binding ability.
(§2) One day before transfection, the COS-7 cells were seeded in 75 cm^2 culture flasks (3 million cells/flask) in DMEM, containing 3.9 g/L NaHCO3 and supplemented with 10% FBS, 1% L-glutamine, 180 units/mL penicillin and 45 µg/mL streptomycin. After an overnight culture at 37 °C, 10% CO2 and 95% air humidity, the cells were transiently transfected with different GLP-2R constructs or pcDNA3.1 vector as previously described.[52] Following 24-h incubation, the cells were transferred to Costa® microtiter plates (150,000 cells/well, PerkinElmer) to achieve a 5%–10% specific binding. […] The cells were then washed twice in binding buffer (4 °C), lysed and counted for radioactivity using a Wallac Gamma Counter (PerkinElmer).

GLP-2R H268^3.37A = biological target: T2, GLP-2R H268^3.37A (Homo sapiens, UniProt O95838, H268A); assay: radioligand competition binding, H268^3.37A; set-up: WT (1–553); expressed in transfected cells; details: COS-7, H268^3.37A; [^125I]GLP-2(1–33, M10Y) 10–15 pM, 4 h, 4 °C; mean ± SEM, n ≥ 3 in duplicate
T2 sequence (O95838 1-553 H268A): T1 sequence (O95838 1-553 K231A) with A231K, H268A
Procedure: as §1, §2

GLP-2R R344^5.40A = biological target: T3, GLP-2R R344^5.40A (Homo sapiens, UniProt O95838, R344A); assay: radioligand competition binding, R344^5.40A; set-up: WT (1–553); expressed in transfected cells; host or cells: COS-7; details: COS-7, R344^5.40A; [^125I]GLP-2(1–33, M10Y) 10–15 pM, 4 h, 4 °C; mean ± SEM, n ≥ 3 in duplicate
T3 sequence (O95838 1-553 R344A): T1 sequence (O95838 1-553 K231A) with A231K, R344A
Procedure: as §1, §2

Structure (SMILES) | % Binding of WT (GLP-2R K231^2.67A) | % Binding of WT (GLP-2R H268^3.37A) [%] | % Binding of WT (GLP-2R R344^5.40A) [%]
CC[C@H](C)[C@H](NC(=O)[C@H](Cc1ccccc1)NC(=O)[C@H](CC(=O)O)NC(=O)[C@H](CCCNC(=N)N)NC(=O)[C@H](C)NC(=O)[C@H](C)NC(=O)[C@H](CC(C)C)NC(=O)[C@H](CC(N)=O)NC(=O)[C@H](CC(=O)O)NC(=O)[C@H](CC(C)C)NC(=O)[C@@H](NC(=O)[C@@H](NC(=O)[C@H](CC(N)=O)NC(=O)[C@H](CCSC)NC(=O)[C@H](CCC(=O)O)NC(=O)[C@H](CC(=O)O)NC(=O)[C@H](CO)NC(=O)[C@H](Cc1ccccc1)NC(=O)[C@H](CO)NC(=O)CNC(=O)[C@H](CC(=O)O)NC(=O)[C@H](C)NC(=O)[C@@H](N)Cc1c[nH]cn1)[C@@H](C)O)[C@@H](C)CC)C(=O)N[C@@H](CC(N)=O)C(=O)N[C@@H](Cc1c[nH]c2ccccc12)C(=O)N[C@@H](CC(C)C)C(=O)N[C@H](C(=O)N[C@@H](CCC(N)=O)C(=O)N[C@H](C(=O)N[C@@H](CCCCN)C(=O)N[C@H](C(=O)N[C@H](C(=O)N[C@@H](CC(=O)O)C(=O)O)[C@@H](C)O)[C@@H](C)CC)[C@@H](C)O)[C@@H](C)CC [Human GLP-2 (1–33)] | N.B. | 2.1 ± 0.8 | 5.0 ± 0.8
CC[C@H](C)[C@H](NC(=O)[C@H](Cc1ccccc1)NC(=O)[C@H](CC(=O)O)NC(=O)[C@H](CCCNC(=N)N)NC(=O)[C@H](C)NC(=O)[C@H](C)NC(=O)[C@H](CC(C)C)NC(=O)[C@H](CC(N)=O)NC(=O)[C@H](CC(=O)O)NC(=O)[C@H](CC(C)C)NC(=O)[C@@H](NC(=O)[C@@H](NC(=O)[C@H](CC(N)=O)NC(=O)[C@H](CCSC)NC(=O)[C@H](CCC(=O)O)NC(=O)[C@H](CC(=O)O)NC(=O)[C@H](CO)NC(=O)[C@H](Cc1ccccc1)NC(=O)[C@H](CO)NC(=O)CNC(=O)[C@H](CC(=O)O)NC(=O)CNC(=O)[C@@H](N)Cc1c[nH]cn1)[C@@H](C)O)[C@@H](C)CC)C(=O)N[C@@H](CC(N)=O)C(=O)N[C@@H](Cc1c[nH]c2ccccc12)C(=O)N[C@@H](CC(C)C)C(=O)N[C@H](C(=O)N[C@@H](CCC(N)=O)C(=O)N[C@H](C(=O)N[C@@H](CCCCN)C(=O)N[C@H](C(=O)N[C@H](C(=O)N[C@@H](CC(=O)O)C(=O)O)[C@@H](C)O)[C@@H](C)CC)[C@@H](C)O)[C@@H](C)CC [Teduglutide] | N.B. | 0.7 ± 1.8 | 3.5 ± 0.8
